Literature values, collected in patent US20170315129A1, “CANCER CELL DETECTION METHOD USING LIVING BODY-DERIVED CELLS OF BIOLOGICAL ORIGIN” (Hirosaki University, priority 2014, published 2017).

Test system: mammalian cells
Settings: kinetics comparable to a radiolabeled D-glucose derivative; cited from earlier work

For O=[N+]([O-])c1ccc(N[C@H]2C(O)O[C@H](CO)[C@@H](O)[C@@H]2O)c2nonc12 (stereo partly shown) [2-NBDG], the “uptake into mammalian cells” value is given as “taken up into mammalian cells through glucose transporters”.
